Entries after “also recorded” stand apart in the source; their conditions may differ. Where a name gives a salt, the structure may show the parent alone.
Legend:
MDR cancer cell lines = test: MTT reversal of drug resistance in MDR cell lines (cell line not specified); format: cell-based
Excerpt: (§1) A panel of parental cancer cell line and their daughter resistant cell lines, displaying MDR phenotype were used in this study. Human ovarian cancer cell line SKOV-3, breast cancer cell line MCF-7 and colon cancer cell line SW480, the osteosarcoma cell line U-2OS, KHOS, uterine sarcoma cell line MESSA and its doxorubicin selected drug resistant cell line MESSA/Dx5, non-small cell lung cancer cell line H-69 and its doxorubicin selected drug resistant cell line H-69AR (overexpress MRP1) were obtained from the ATCC (Rockville, Md.). Dr. Efstathios Gonos (Institute of Biological Research & Biotechnology, Athens, Greece) provided the doxorubicin resistant U-2OS R2 (referred in the text below as U-2OSDR), KHOS R2 cell lines. Dr. Erasmus Schneider (Wadsworth Center, Albany) provided the mitoxantrane resistant breast cancer MCF-7/MX (overexpress BCRP) cell line. All the cell lines were cultured in RPMI 1640 (Invitrogen, Carlsbad, Calif.) supplemented with 10% fetal bovine serum, 100-units/ml penicillin and 100 μg/ml streptomycin (Invitrogen). Cells were incubated at 37° C. in 5% CO2-95% air atmosphere and passaged when near confluent monolayers were achieved using 2% trypsin-EDTA solution. Drug-resistant cell lines were periodically cultured in the respective drug to confirm their drug resistance characteristics. The fresh chemotherapy drugs were obtained from the pharmacy at the Massachusetts General Hospital and stored at −20° C.
(§2) To evaluate for reversal of Pgp-mediated MDR, SKOV-3TR, MCF-7adr and SW480TR cell lines were seeded into 96-well tissue culture plate at 2,000 cells per well with varying concentrations of chemotherapy drugs and NSC23925b for 6 days. Cell proliferation IC50 (concentration required for 50% inhibition) and MDR reversal IC50 were determined from dose-response curves carried out in triplicate in 96-well plate. Fold of reverse resistance for individual drugs were defined as the IC50 of MDR cells without NSC23925b treatment divided by the IC50 of MDR cells treated with NSC23925b. To test for the effect of reversal of MRP1 or BCRP-mediated MDR, H-69AR or MCF-7/MX cells were placed into 96-wells and treated with chemotherapy drugs similar as described above. Drug cytotoxicity was assessed in vitro using the MTT assay as previously described. Drugs at the concentrations utilized in the MTT assay were performed in the absence of cells to verify no change in absorbance. Response curves were fitted with use of GraphPad PRISM 4 software (GraphPad Software).

SW480TR = test: MTT cytotoxicity assay and reversal of MDR in SW480TR; format: cell-based, human
Excerpt: as §1, with “Drug-resistant cell lines were periodically cultured in the respective drug to confirm their drug resistance characteristics.” left out
as §2, with “To test for the effect of reversal of MRP1 or BCRP-mediated MDR, H-69AR or MCF-7/MX cells were placed into 96-wells and treated with chemotherapy drugs similar as described above.” left out, “Drugs at the concentrations utilized in the MTT assay were performed in the absence of cells to verify no change in absorbance.” left out
MCF-7adr and SW480TR cells were treated with paclitaxel (FIGS. 2A-B), doxorubicin (FIGS. 2C-D) or mitoxantrane (FIGS. 2E-F) and NSC23925b in RPMI1640 complete media at the indicated concentrations. The relative sensitivity of each line to the indicated drugs was determined by MTT analysis 6 days post-treatment.

[1] = system: SKOV-3TR xenograft tumors; test: SKOV-3TR xenograft tumor growth in nude mice
Protocol: The Crl:SHO-Prkdc^SCIDHr^hr nude female mice at approximately 3-4 weeks of age were purchased from The Charles River Laboratories (Ann Arbor, Mich.). Animal studies were carried out with protocols approved by the Massachusetts General Hospital Subcommittee on Research Animal Care (SRAC). To determine the effect of NSC23925b on paclitaxel sensitivity in xenograft model, 5×10^6 SKOV-3TR cells were injected subcutaneously with matrigel (BD Biosciences, San Jose, Calif.) on day one. Two weeks after injection, the mice were divided into four groups to start the treatments. Group one was received intraperitoneal (i.p) injection with normal saline, group two with paclitaxel (20 mg/kg), group three with NSC23925b (40 mg/kg). […] All four groups were treated twice a week for two weeks. The health of the mice and evidence of tumor growth were examined daily. Tumors were measured twice a week with a digital caliper. Tumor volume (mm^3) was calculated as (W^2×L)/2, where W is width and L is length. The curve of tumor growth was drawn according to tumor volume by using of GraphPad PRISM 4 software.
To further evaluate the effects of NSC23925b and paclitaxel combination therapy on the tumor growth of resistant cells, the growth of xenograft tumors were examined. A well-characterized ovarian cancer MDR cell line SKOV-3TR was chosen for in vivo studies. […] Tumors were measured twice a week with a digital caliper. Tumor volume (mm^3) was calculated as (W^2×L)/2, where W is width and L is length (FIG. 5A). Representative images of dissected tumor tissues from treated nude mice.

[2] = Reverse Drug Resistance by NSC23925b, value = chemotherapy drug, hydrochloride

Compound: COc1ccc(-c2cc([C@H](O)[C@H]3CCCCN3)c3ccccc3n2)cc1 [NSC23925b, (2-(4-methoxyphenyl)quinolin-4-yl)(piperidin-2-yl)methanol hydrochloride]
- effects on the drug sensitivities of cisplatin, carboplatin, toptecan and methotrexate (MDR cancer cell lines): no significant effects
- Decreased Drug Resistance (drug to which NSC23925b decreased resistance) (MDR cancer cell lines; [2]): Gemcitabine; also recorded: ET-743; also recorded: Mitoxantrane; also recorded: Paclitaxel; also recorded: Docetaxel; also recorded: Doxorubicin; also recorded: Vincristine; also recorded: Daunorubicin
- No Effect (drug whose resistance NSC23925b did not change) (MDR cancer cell lines; [2]): Cisplatin; also recorded: Carboplatin; also recorded: Topotecan; also recorded: Methotrexate
- effect on doxorubicin-induced cell death (MTT cytotoxicity assay) (MDR cancer cell lines; combined with doxorubicin): synergistic effect
- reverse MDR to paclitaxel, doxorubicin, and mitoxantrane (MDR cancer cell lines; ovarian, breast, uterine, colon, and sarcoma MDR cancer cell lines): able to reverse MDR
- fold-reversal of drug resistance (SW480TR; Doxorubicin, NSC23925b 0.1 μM): 1.7 fold
- fold-reversal of drug resistance (SW480TR; Doxorubicin, NSC23925b 0.5 μM): 3 fold
- fold-reversal of drug resistance (SW480TR; Doxorubicin, NSC23925b 1 μM): 8 fold
- reverse paclitaxel, doxorubicin, and mitoxantrane resistance (SW480TR; MTT 6 days post-treatment): able to reverse
- fold-reversal of drug resistance (SW480TR; Mitoxantrane, NSC23925b 0.1 μM): 1.2 fold
- fold-reversal of drug resistance (SW480TR; Mitoxantrane, NSC23925b 0.5 μM): 3 fold
- fold-reversal of drug resistance (SW480TR; Mitoxantrane, NSC23925b 1 μM): 14 fold
- fold-reversal of drug resistance (SW480TR; Paclitaxel, NSC23925b 0.1 μM): 1.3 fold
- fold-reversal of drug resistance (SW480TR; Paclitaxel, NSC23925b 0.5 μM): 8 fold
- fold-reversal of drug resistance (SW480TR; Paclitaxel, NSC23925b 1 μM): 13 fold
- reversal of resistance to paclitaxel in xenograft model ([1]; NSC23925b 50 mg/kg with paclitaxel): almost completely reverse resistance to paclitaxel
- toxicity on the basis of animal weight and mortality ([1]; NSC23925b administered alone): no significant toxicity
- effect on paclitaxel-induced toxicity ([1]; NSC23925b combined with paclitaxel): reducing paclitaxel-induced toxicity in some animals
- inhibitory effect on tumor growth, combination versus single agents ([1]; NSC23925b with paclitaxel (20 mg/kg) i.p. twice a week for two weeks): significantly greater inhibitory effect
- effect on paclitaxel resistant tumor cell growth, single agent ([1]; alone, i.p. twice a week for two weeks, paclitaxel 20 mg/kg or NSC23925b 40 mg/kg): no significant effects

From patent US20140371165A1, “Identification of NSC23925 Isomers to Reverse Multidrug Resistance in Human Cancers” (priority 2012, published 2014)
